Patent US12234245B2, “Sulfonimidamide compounds as inhibitors of interleukin-1 activity” (Genentech, Inc., priority 2018, dated 2025)

Target: NLRP3 inflammasome (Homo sapiens, UniProt Q96P20)
Assay: THP-1 ASC-GFP speck assay
Format: cell-based
Design: host or cells: THP-1 ASC-GFP cells, PMA-differentiated, LPS-primed, nigericin-stimulated
Details: THP-1 ASC-GFP cells, PMA differentiated, LPS primed, 10 μM nigericin; read-out: THP1 ASC Speck IC50
Protocol: THP-1 ASC-GFP cell line was purchased from Invivogen, San Diego, for inflammasome activation assay. THP-1 ASC-GFP cells stably express a 37.6 kDa ASC::GFP fusion protein that enables monitoring of spec formation by microscopy after activation of NLRP3 dependent inflammasome pathway. Cells were maintained at a density of 600,000 cells/mL in growth media consisting of RPMI 1640, 2 mM L-glutamine, 25 mM HEPES and 10% heat inactivated fetal bovine serum at 37° C. and 5% CO2. Cells were passaged every 3-4 days and used for assays for up to 20 passages.
THP-1 ASC-GFP cells were collected by centrifuging cells at 800 RPM for 5 minutes. Cell culture supernatant was removed and cells were re-suspended in fresh media at density of 1×10^6 cells/mL in assay media consisting of RPMI 1640, 2 mM L-glutamine, 25 mM HEPES and 10% heat inactivated fetal bovine serum. Phorbol 12-myristate 13-acetate (PMA) (Invivogen, tlrl-pma) was added to the cell suspension at a final concentration of 500 ng/ml and mixed thoroughly. 40,000 cells were added per well of a 384 well plate and differentiated into macrophages overnight at 37° C. and 5% CO2. Cells were primed with 1 μg/mL of lipopolysaccharide (Invivogen Ultrapure lipopolysaccharide from E. coli, tlrl-3pelps) in assay media for 3 hours at 37° C. and 5% CO2. After priming, media was removed and THP-1 ASC-GFP cells were preincubated with serially diluted test compounds with starting concentration of 40 μM followed by 2-fold dilution for a 20-point curve or vehicle (DMSO) for 30 min in assay media at 37° C. and 5% CO2. Cells were then stimulated with 10 μM nigericin (Invivogen, tlrl-nig-5) for 90 min at 37° C. and 5% CO2 to activate NLRP3 dependent inflammasome pathway and spec formation. After stimulation, cells were fixed with 4.8% paraformaldehyde (Electron Microscopy Sciences #15710-S) and incubated at room temperature for 15 min. Cells were then washed 3-times with 100 μL of phosphate buffered saline and permeabilized in the presence of premeablization/block buffer for 20 min at room temperature. Cells were then washed 3-times with 100 μL phosphate buffered saline and incubated for 1 hr at room temperature in the presence of hoechst. After staining with Hoechst, cells were washed 3-times with 100 μL phosphate buffered saline and imaged for ASC spec formation.
THP-1 ASC-GFP cells were imaged in 488 and Hoechst channels. Hoechst channel was used for cell count and 488 channel was used to identify number of GFP ASC specks in imaged fields. Percentage of cells with a spec was calculated by dividing the number of GFP positive spots by total number of cells.

NLRP3 inflammasome, sequence (Q96P20 whole entry): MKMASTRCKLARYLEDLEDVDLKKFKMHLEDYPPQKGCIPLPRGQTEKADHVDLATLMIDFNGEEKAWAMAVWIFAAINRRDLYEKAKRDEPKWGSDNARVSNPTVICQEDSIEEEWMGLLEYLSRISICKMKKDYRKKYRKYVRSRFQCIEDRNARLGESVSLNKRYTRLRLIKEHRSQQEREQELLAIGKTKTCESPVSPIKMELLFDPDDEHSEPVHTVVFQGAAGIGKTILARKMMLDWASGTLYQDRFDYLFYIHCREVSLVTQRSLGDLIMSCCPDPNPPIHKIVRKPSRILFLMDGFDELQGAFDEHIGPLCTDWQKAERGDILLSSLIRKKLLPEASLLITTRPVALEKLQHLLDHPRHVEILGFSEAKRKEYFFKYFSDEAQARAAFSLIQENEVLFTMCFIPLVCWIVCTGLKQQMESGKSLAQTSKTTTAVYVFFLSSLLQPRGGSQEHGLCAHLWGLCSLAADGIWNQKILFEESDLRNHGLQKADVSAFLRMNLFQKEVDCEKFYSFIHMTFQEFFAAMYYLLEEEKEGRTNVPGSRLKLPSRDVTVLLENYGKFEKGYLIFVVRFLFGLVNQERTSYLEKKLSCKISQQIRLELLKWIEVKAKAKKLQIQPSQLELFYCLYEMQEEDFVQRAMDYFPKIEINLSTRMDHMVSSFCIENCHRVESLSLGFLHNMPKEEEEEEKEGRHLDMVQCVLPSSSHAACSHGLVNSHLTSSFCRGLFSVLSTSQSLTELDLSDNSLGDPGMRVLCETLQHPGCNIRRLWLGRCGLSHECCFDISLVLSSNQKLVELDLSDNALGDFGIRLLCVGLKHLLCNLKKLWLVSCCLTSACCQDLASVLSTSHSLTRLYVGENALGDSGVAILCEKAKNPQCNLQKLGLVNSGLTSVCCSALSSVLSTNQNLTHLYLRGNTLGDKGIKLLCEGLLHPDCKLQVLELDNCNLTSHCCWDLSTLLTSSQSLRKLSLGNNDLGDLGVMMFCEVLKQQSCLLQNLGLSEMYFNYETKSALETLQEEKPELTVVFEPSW

Row | IC50 | Structure (SMILES)
1 | 0.36 µM | CC1(C)COc2c(S(=O)(=NC(=O)Nc3c4c(cc5c3CCC5)CCC4)NC#N)cnn2C1 (racemic) [Example 94, N-cyano-N′-((1,2,3,5,6,7-hexahydro-s-indacen-4-yl)carbamoyl)-6,6-dimethyl-6,7-dihydro-5H-pyrazolo[5,1-b][1,3]oxazine-3-sulfonimidamide]
2 | > 20 µM | NS(=O)(=NC(=O)Nc1c2c(cc3c1CCC3)CCC2)c1cnn2c1COCCC2 (single isomer, unassigned) [Example 61]
3 | 0.92 µM | NS(=O)(=NC(=O)Nc1c2c(cc3c1CCC3)CCC2)c1cnn2c1COCCC2 (single isomer, unassigned) [Example 62]
4 | 0.34 µM | CC1CCOc2c(S(N)(=O)=NC(=O)Nc3c4c(cc5c3CCC5)CCC4)cnn2C1 (single isomer, unassigned) [Example 65]
5 | 0.03 µM | N#CNS(=O)(=NC(=O)Nc1c2c(cc3c1CCC3)CCC2)c1cnn2c1OCCC2 (single isomer, unassigned) [Example 69]
6 | > 20 µM | CNCCOc1cc(C(C)C)c(NC(=O)N=S(N)(=O)c2cnn3c2OCCC3)c(C(C)C)n1 (single isomer, unassigned) [Example 70]
7 | > 20 µM | CNCCOc1cc(C(C)C)c(NC(=O)N=S(N)(=O)c2cnn3c2OCCC3)c(C(C)C)n1 (single isomer, unassigned) [Example 71]
8 | 2.5 µM | NS(=O)(=NC(=O)Nc1c2c(cc3c1CCC3)CCC2)c1cnn2c1NCCC2 (single isomer, unassigned) [Example 72]
9 | > 20 µM | NS(=O)(=NC(=O)Nc1c2c(cc3c1CCC3)CCC2)c1cnn2c1NCCC2 (single isomer, unassigned) [Example 73]
10 | > 20 µM | CC1CCn2ncc(S(N)(=O)=NC(=O)Nc3c4c(cc5c3CCC5)CCC4)c2OC1 (single isomer, unassigned) [Example 74]
11 | 15 µM | CC1CCn2ncc(S(N)(=O)=NC(=O)Nc3c4c(cc5c3CCC5)CCC4)c2OC1 (single isomer, unassigned) [Example 75]
12 | 2.6 µM | COc1cc(C(C)C)c(NC(=O)N=S(N)(=O)c2cnn3c2OCC(C)(C)C3)c(C(C)C)n1 (single isomer, unassigned) [Example 76]
13 | > 20 µM | COc1cc(C(C)C)c(NC(=O)N=S(N)(=O)c2cnn3c2OCC(C)(C)C3)c(C(C)C)n1 (single isomer, unassigned) [Example 77]
14 | 0.093 µM | CC1CCn2ncc(S(N)(=O)=NC(=O)Nc3c4c(cc5c3CCC5)CCC4)c2OC1 (single isomer, unassigned) [Example 78]
15 | 1 µM | CC1CCn2ncc(S(N)(=O)=NC(=O)Nc3c4c(cc5c3CCC5)CCC4)c2OC1 (single isomer, unassigned) [Example 79]
16 | 4.5 µM | CC1(C)COc2c(S(N)(=O)=NC(=O)Nc3c4c(cc5c3CCC5)CCC4)cnn2C1 (single isomer, unassigned) [Example 80]
17 | 0.02 µM | CC1(C)COc2c(S(N)(=O)=NC(=O)Nc3c4c(cc5c3CCC5)CCC4)cnn2C1 (single isomer, unassigned) [Example 81]
18 | 0.27 µM | CNC1COc2c(S(N)(=O)=NC(=O)Nc3c4c(c(F)c5c3CCC5)CCC4)cnn2C1 (single isomer, unassigned) [Example 82]
19 | 0.008 µM | CNC1COc2c(S(N)(=O)=NC(=O)Nc3c4c(c(F)c5c3CCC5)CCC4)cnn2C1 (single isomer, unassigned) [Example 83]
20 | > 20 µM | CNCc1cc(C(C)C)c(NC(=O)N=S(N)(=O)c2cnn3c2OCCC3)c(C(C)C)n1 (single isomer, unassigned) [Example 84]
21 | > 20 µM | CNCc1cc(C(C)C)c(NC(=O)N=S(N)(=O)c2cnn3c2OCCC3)c(C(C)C)n1 (single isomer, unassigned) [Example 85]
22 | > 20 µM | COC1CCn2ncc(S(N)(=O)=NC(=O)Nc3c4c(cc5c3CCC5)CCC4)c2OC1 (single isomer, unassigned) [Example 86]
23 | 2.9 µM | COC1CCn2ncc(S(N)(=O)=NC(=O)Nc3c4c(cc5c3CCC5)CCC4)c2OC1 (single isomer, unassigned) [Example 87]
24 | 7.7 µM | COC1CCOc2c(S(N)(=O)=NC(=O)Nc3c4c(cc5c3CCC5)CCC4)cnn2C1 (single isomer, unassigned) [Example 88]

Row | IC50 | Structure (SMILES)
25 | > 20 µM | COC1CCOc2c(S(N)(=O)=NC(=O)Nc3c4c(cc5c3CCC5)CCC4)cnn2C1 (single isomer, unassigned) [Example 89]
26 | 0.32 µM | COC1CCOc2c(S(N)(=O)=NC(=O)Nc3c4c(cc5c3CCC5)CCC4)cnn2C1 (single isomer, unassigned) [Example 90]
27 | 0.49 µM | COC1CCOc2c(S(N)(=O)=NC(=O)Nc3c4c(cc5c3CCC5)CCC4)cnn2C1 (single isomer, unassigned) [Example 91]
28 | 8.2 µM | COC1CCn2ncc(S(N)(=O)=NC(=O)Nc3c4c(cc5c3CCC5)CCC4)c2OC1 (single isomer, unassigned) [Example 92]
29 | 0.36 µM | COC1CCn2ncc(S(N)(=O)=NC(=O)Nc3c4c(cc5c3CCC5)CCC4)c2OC1 (single isomer, unassigned) [Example 93]
30 | > 20 µM | CC(C)c1nn(CC(F)F)c(C(C)C)c1NC(=O)N=S(N)(=O)c1cnn2c1OCCC2 (single isomer, unassigned) [Example 96]
31 | 1.3 µM | CC(C)c1nn(CC(F)F)c(C(C)C)c1NC(=O)N=S(N)(=O)c1cnn2c1OCCC2 (single isomer, unassigned) [Example 97]
32 | > 20 µM | CCn1nc(C(C)C)c(NC(=O)N=S(N)(=O)c2cnn3c2OCCC3)c1C(C)C (single isomer, unassigned) [Example 98]
33 | 1.7 µM | CCn1nc(C(C)C)c(NC(=O)N=S(N)(=O)c2cnn3c2OCCC3)c1C(C)C (single isomer, unassigned) [Example 99]
34 | 2.7 µM | NS(=O)(=NC(=O)Nc1c2c(cc3c1CCC3)CCC2)c1cnn2c1SCCC2 (single isomer, unassigned) [Example 100]
35 | > 20 µM | NS(=O)(=NC(=O)Nc1c2c(cc3c1CCC3)CCC2)c1cnn2c1SCCC2 (single isomer, unassigned) [Example 101]
36 | 5.1 µM | COc1cc(C(C)C)c(NC(=O)N=S(N)(=O)c2cnn3c2OCCC3)c(C(C)C)n1 (single isomer, unassigned) [Example 102]
37 | > 20 µM | COc1cc(C(C)C)c(NC(=O)N=S(N)(=O)c2cnn3c2OCCC3)c(C(C)C)n1 (single isomer, unassigned) [Example 103]
38 | 9.9 µM | CNC1CCOc2c(S(N)(=O)=NC(=O)Nc3c4c(cc5c3CCC5)CCC4)cnn2C1 (single isomer, unassigned) [Example 105]
39 | 0.15 µM | CNC1CCOc2c(S(N)(=O)=NC(=O)Nc3c4c(cc5c3CCC5)CCC4)cnn2C1 (single isomer, unassigned) [Example 106]
40 | 9 µM | CN1CCCn2ncc(S(N)(=O)=NC(=O)Nc3c4c(cc5c3CCC5)CCC4)c21 (single isomer, unassigned) [Example 107]
41 | > 20 µM | CN1CCCn2ncc(S(N)(=O)=NC(=O)Nc3c4c(cc5c3CCC5)CCC4)c21 (single isomer, unassigned) [Example 108]
42 | 5.7 µM | CNC1CCOc2c(S(N)(=O)=NC(=O)Nc3c4c(cc5c3CCC5)CCC4)cnn2C1 (single isomer, unassigned) [Example 109]
43 | 0.12 µM | CNC1CCOc2c(S(N)(=O)=NC(=O)Nc3c4c(cc5c3CCC5)CCC4)cnn2C1 (single isomer, unassigned) [Example 110]
44 | 0.1 µM | CN(C)[C@@H]1COc2c([S@](=O)(=NC(=O)Nc3c4c(c(F)c5c3CCC5)CCC4)NC#N)cnn2C1 (single isomer, unassigned) [Example 111]
45 | 0.61 µM | CO[C@H]1CCOc2c([S@@](=O)(=NC(=O)Nc3c4c(cc5c3CCC5)CCC4)NC#N)cnn2C1 (single isomer, unassigned) [Example 112]
46 | > 20 µM | CC(C)c1nn(CC2CC2)c(C(C)C)c1NC(=O)N=S(N)(=O)c1cnn2c1OCCC2 (single isomer, unassigned) [Example 113]
47 | 4.4 µM | CC(C)c1nn(CC2CC2)c(C(C)C)c1NC(=O)N=S(N)(=O)c1cnn2c1OCCC2 (single isomer, unassigned) [Example 114]
48 | 2.5 µM | COC1COc2c(S(=O)(=NC(=O)Nc3c4c(cc5c3CCC5)CCC4)NC(C)=O)cnn2C1 (single isomer, unassigned) [Example 115]
